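48-hour exposure; five concentrations; linearly interpolated endpoints. GI50 marks 50% less growth. TGI denotes the concentration required for complete inhibition of growth.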
Assays:
Experiment in all cases: NCI anticancer screen, dose series, 48 h
MDA-MB-231 breast = tested on: MDA-MB-231 breast
SF-295 CNS = tested on: SF-295 CNS
OVCAR-5 ovarian = tested on: OVCAR-5 ovarian
TK-10 renal = tested on: TK-10 renal
SN12C renal = tested on: SN12C renal
UACC-257 melanoma = tested on: UACC-257 melanoma
EKVX NSCLC = tested on: EKVX NSCLC
SF-268 CNS = tested on: SF-268 CNS
BT-549 breast = tested on: BT-549 breast
SNB-75 CNS = tested on: SNB-75 CNS

SMILES	TGI (MDA-MB-231 breast) [µM]	TGI (SF-295 CNS) [µM]	TGI (OVCAR-5 ovarian) [µM]	TGI (TK-10 renal) [µM]	TGI (SN12C renal) [µM]	TGI (UACC-257 melanoma) [µM]	TGI (EKVX NSCLC) [µM]	TGI (SF-268 CNS) [µM]	TGI (BT-549 breast) [µM]	GI50 (MDA-MB-231 breast) [µM]	GI50 (SF-295 CNS) [µM]	GI50 (OVCAR-5 ovarian) [µM]	GI50 (TK-10 renal) [µM]	GI50 (SN12C renal) [µM]	GI50 (UACC-257 melanoma) [µM]	GI50 (SF-268 CNS) [µM]	GI50 (SNB-75 CNS) [µM]	TGI (SNB-75 CNS) [µM]	GI50 (BT-549 breast) [µM]	GI50 (EKVX NSCLC) [µM]
CC(C)=CCN1c2ccccc2NC(=O)CC1C (configuration not stated)	> 100	> 100	> 100	> 100	81.2	> 100	> 100	> 100	55											
CCOc1ccccc1CCN=C1NC(=O)/C(=C/c2ccc3ncccc3c2)S1	18.6	> 6	15.8	> 23.3	> 25	> 22.7		> 25	> 12.7	4.24	0.672	3.09	1.35	1.61	10.5	1.35	0.536	7.79	1.74	
CCOC(=O)NC(=O)c1cn(CCN2CCN(C(=O)NCCCCCCNC(=O)N3CCN(CCn4cc(C(=O)NC(=O)OCC)c(=O)[nH]c4=O)CC3)CC2)c(=O)[nH]c1=O		> 100	> 100	> 100	> 100	> 100	> 100	> 100										> 100		
COC(=O)/C(=N\NC(C)(C)C)C(C(=O)OC)C(=O)C(=O)Nc1cc(Cl)ccc1Cl (configuration not stated)		> 100	> 100	> 100	> 100	> 100	> 100	> 100										> 100		
C=C(c1ccccc1)C1(O)CCCCC1N (configuration not stated)		> 100	> 100	> 100	> 100	> 100	> 100	> 100										> 100		
Nc1ncnc2c1ncn2C1OC(CSCC(F)(F)F)C(O)C1O (configuration not stated)		> 100	> 100	> 100	> 100	> 100	> 100	> 100										> 100		
O=C1Nc2ccccc2C1(O)C/C(=N/O)c1ccc2ccccc2c1 (configuration not stated)		> 100	> 100	> 100	> 100	> 100	> 100	> 100										> 100		
COc1cccc(-c2nc3cc(NC(=O)c4ccc(Cl)c(C#N)c4)ccc3o2)c1	> 100	> 100	> 100	9	> 100	> 100				3.28	11.7	3.05	3.39	3.1	3.81		2.48	7.15		
CN1N=CSC12C(=O)N(c1ccccc1)C(=O)N2c1ccccc1 (configuration not stated)		> 100	> 100	> 100	> 100	> 100	> 100	> 100										> 100		
COc1cc(Cl)cc(=O)c(O)c1OC		> 100	> 100	> 100	> 100	> 100	> 91.8	> 100										> 100		
O=c1cc(-c2cccs2)[nH]c2cc3c(cc12)OCO3		> 49	> 100	> 100	> 100	> 100	> 100	> 100										6.63		
O=C(/C=C/c1ccccc1)Oc1cccc2cccnc12		> 100	80.6	> 100	> 58.6	18.2	> 68.2	13.7										> 71		
O=C1C=CC(=O)c2c1ccc1c3ccccc3n(Cc3ccc([N+](=O)[O-])cc3)c21	> 100	> 100		> 100	> 100	> 100	> 100	> 100	> 100									> 100		
COC(=O)C1=CO[C@@H](OC2CC(CO)C(O)C(O)C2O)[C@@H]2[C@@H](C)[C@@H](OC(=O)/C=C/c3ccccc3)[C@@H](O)[C@H]12 (some centres not stated) (tested in a mixture with another compound)		> 100	> 100	> 100	> 100	> 100	> 100	> 100										> 100		
Cn1c(=O)nc2n(-c3ccc(O)cc3)c3ccccc3nc-2c1=O		> 100	> 100	> 100	> 100	> 100	> 100	> 100										> 100		
N#CC(C#N)=C/C=C(\Cl)c1ccc(Cl)cc1	14	36.4	24.5	19.2	26.7	30.2	55.4	50.5	22	2.54	9.73	8.78	4.66	4.52	14.8	14.1			8.32	23.8
O=C(Oc1cccnc1)c1cccnc1Nc1ccnc(C(F)(F)F)c1	> 100	> 100	> 100	> 100	> 100	> 100	> 100	> 100	> 100	14.1	44.4	72.8	17.2	6.48	27.1	5.63			5.2	51.3
CCC1(O)C(=O)OCc2c1cc1n(c2=O)Cc2cc3ccccc3nc2-1 (configuration not stated)	7.06	0.226	1.25	50.5		3.57	0.488	15.2	> 41.4									0.19		
O=C1C[C@H]2CCCN2[C@@H](c2ccccc2)C1		> 100	> 100	> 100	> 100	> 100	> 100	> 100										> 100		
c1ccc(C2ONC3=NCCN32)cc1 (configuration not stated)	> 100	> 100	> 100	> 100		> 100	> 100	> 100	> 100	37.2	48.3	67.9	> 100		> 100	54.3	53.4	> 100	79.6	> 100
Oc1cccc(Nc2nc3ccccc3c3occc23)c1	27	11.7	25.3	12.2	25.9	29.4	28.5	17.5	27.2	11.5	2.34	12.7	5.21	13.2	15.9	4.39			14.2	14.6

Reference: PubChem BioAssay (NCI)
